{
  "source": "patent US20240041754A1",
  "about": "“NOVEL SACCHAROMYCES CEREVISIAE STRAIN AND USE THEREOF” (LG HOUSEHOLD & HEALTH CARE LTD., priority 2020, published 2024)",
  "key": {"[1]": {"test_system": "Human keratinocytes (HaCaT)", "assay": "Hyaluronic acid synthesis enhancement, Quantikine ELISA Hyaluronan", "format": "cell-based", "conditions": "1 ppm, 72 hours, vs negative control (DMEM containing 0% serum)", "method": "Human keratinocytes (HaCaT) were treated with each sample for 72 hours. Thereafter, a hyaluronic acid synthesis rate was derived by measuring hyaluronic acid using R&D systems' Quantikine ELISA Hyaluronan. The skin moisturizing ability of the sample was expressed as an increase rate (%) of hyaluronic acid synthesis, which was calculated and quantified in comparison to a negative control group (treated with DMEM containing 0% serum).\nThe calculation formula of the increase rate of hyaluronic acid synthesis, each sample, and the results thereof are shown in Table 6 below.\nIncrease rate of hyaluronic acid synthesis (%)=(Hyaluronic acid synthesis rate of Sample−Hyaluronic acid synthesis rate of Negative control)/Hyaluronic acid synthesis rate of Negative control"}, "[2]": {"test_system": "Human dermal fibroblasts", "assay": "Collagen synthesis enhancement, procollagen type I C-peptide (PIP) EIA kit", "format": "cell-based", "conditions": "10 ppb, 48 hours, vs negative control (DMEM containing 0% serum)", "method": "Human dermal fibroblasts were treated with each sample for 48 hours. Thereafter, a collagen synthesis rate was measured by detecting collagen using a method of a procollagen type I C-peptide (PIP) EIA kit. The collagen synthesis efficiency of the sample was expressed as an increase rate (%) of collagen synthesis, which was calculated and quantified in comparison to a negative control group (DMEM containing 0% serum).\nIncrease rate of collagen synthesis (%)=(Collagen synthesis rate of Sample−Collagen synthesis rate of Negative control)/Collagen synthesis rate of Negative control"}},
  "data": [
    {"compound": "CC1=C(/C=C/C(C)=C/C=C/C(C)=C/C(=O)O)C(C)(C)CCC1", "note": "[Retinoic acid]", "values": [
      {"measurement": "Increase rate of hyaluronic acid synthesis", "setting": "[1]", "result": 13.8, "unit": "%"}
    ]},
    {"compound": "TGF-β", "values": [
      {"measurement": "Increase rate of collagen synthesis", "setting": "[2]", "result": 15.2, "unit": "%"}
    ]}
  ]
}
